From publication PMC12666248, “Synthesis of an N‐Galactosyl Norbornane Aziridine and its Potent Mixed Inhibition of Aspergillus oryzae β‐Galactosidase” (Chembiochem, 2025)
pKi: −log10 of the molar value.

Biological target: T1, β-galactosidase (A. oryzae) (Aspergillus oryzae, UniProt Q2UCU3)
T1 construct: gene lacA
T1 sequence (Q2UCU3 19-1005): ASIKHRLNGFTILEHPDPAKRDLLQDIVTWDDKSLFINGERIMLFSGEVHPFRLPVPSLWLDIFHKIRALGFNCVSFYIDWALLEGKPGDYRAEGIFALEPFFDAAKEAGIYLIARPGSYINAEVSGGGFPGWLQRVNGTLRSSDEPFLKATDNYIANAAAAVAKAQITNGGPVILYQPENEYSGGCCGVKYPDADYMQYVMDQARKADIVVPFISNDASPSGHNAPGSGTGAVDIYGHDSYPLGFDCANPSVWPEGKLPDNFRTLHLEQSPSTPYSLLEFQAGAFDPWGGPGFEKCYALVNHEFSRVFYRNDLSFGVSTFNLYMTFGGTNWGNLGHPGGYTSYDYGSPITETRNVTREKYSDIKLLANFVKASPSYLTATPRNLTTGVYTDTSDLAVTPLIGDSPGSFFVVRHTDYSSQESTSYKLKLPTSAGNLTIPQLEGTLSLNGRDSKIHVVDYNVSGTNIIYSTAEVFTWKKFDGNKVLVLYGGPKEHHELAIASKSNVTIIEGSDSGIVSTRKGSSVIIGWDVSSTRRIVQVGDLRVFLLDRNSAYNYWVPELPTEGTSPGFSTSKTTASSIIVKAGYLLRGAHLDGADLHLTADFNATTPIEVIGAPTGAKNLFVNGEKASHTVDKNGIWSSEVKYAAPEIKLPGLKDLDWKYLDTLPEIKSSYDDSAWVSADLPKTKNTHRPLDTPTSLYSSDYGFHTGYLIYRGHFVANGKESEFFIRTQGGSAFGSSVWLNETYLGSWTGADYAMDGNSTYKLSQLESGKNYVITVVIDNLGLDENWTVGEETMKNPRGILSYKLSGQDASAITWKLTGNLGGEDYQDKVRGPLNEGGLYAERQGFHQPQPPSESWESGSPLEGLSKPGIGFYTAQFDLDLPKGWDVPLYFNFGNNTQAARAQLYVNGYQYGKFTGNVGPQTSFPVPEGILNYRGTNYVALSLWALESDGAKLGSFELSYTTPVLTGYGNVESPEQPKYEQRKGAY
Assay: Enzyme kinetics with 2-nitrophenyl β-D-galactopyranoside, absorbance at […] nm, Lineweaver–Burk analysis, pH […] °C
Assay type: biochemical

OC[C@H]1O[C@@H](N2[C@@H]3[C@H]4CC[C@H](C4)[C@@H]32)[C@H](O)[C@@H](O)[C@H]1O (stereo partly drawn) [compound 6, N‐(β‐D‐galactopyranosyl)‐exo‐3‐azatricyclo[3.2.1.0^2,4]octane]
pKi: 5.44
